Data reported in patent US20180207164A1, “COMBINATION THERAPIES FOR TREATING CANCERS” (GILEAD SCIENCES, INC., priority 2015, published 2018).

Key:
[1] = system: primary CLL cells + HS-5 co-culture; assay: Apoptosis induction in primary CLL cells with αIgM/αIgG/αCD40 stimulation in HS-5 stromal cell co-culture; assay type: cell-based, human; settings: for Maximal % Apoptosis: +HS-5, 1 μM compound, 66-72 hr post-compound addition, duplicate wells
Experimental: (§1) The HS-5 human stromal cell line was obtained from ATCC (American Tissue Type Collection). Cells were maintained in lymphocyte growth medium (LGM): RPMI-1640 supplemented with 10% FBS, 1% penicillin-streptomycin, 10 mM HEPES, 1 mM sodium pyruvate, 55 μM β-mercaptoethanol, and 2 mM GlutaMax. With informed consent, whole blood was obtained from CLL subjects.
(§2) Peripheral blood mononuclear cells (PBMCs) were prepared from human whole blood obtained from CLL patients by Ficoll-separation in CPT tubes according to manufacturer's directions (Becton Dickinson). Isolated PBMCs were cryopreserved in freezing medium (50% IMDM, 40% FBS, and 10% DMSO) and held in the gas phase of liquid nitrogen until use. One day prior to plating of primary CLL cells, wells of a U-bottom 96-well plate were coated with 3.0×10^4 HS-5 cells and allowed to adhere overnight in a humidified 37° C. incubator supplemented with 5% CO2. The % CD5+/CD19^+ cells isolated were quantified via FACS staining.
One day prior to plating of primary CLL cells, wells of a U-bottom 96-well plate were coated with 3.0×10^4 HS-5 cells and allowed to adhere overnight in a humidified 37° C. incubator supplemented with 5% CO2.
(§3) Frozen primary CLL PBMCs were thawed, washed once in LGM, and rested for 3-5 hours in LGM at 37° C. prior to plating. Cells were then centrifuged at room temperature for 10 minutes and resuspended at 1.0-2.5×10^5 cells/mL in LGM for plating. Assay wells were set up in U-bottom 96-well tissue culture plates in the absence or presence of HS-5 co-culture. Compounds were diluted as described below. Assay plates were incubated for 1 hour prior to stimulation with αIgM/αIgG (7.8 μg/well) and αCD40 (4 μg/well). Positive and negative controls were set up. Cells were incubated for 66-72 hours in a 37° C. CO2 incubator and assayed for apoptosis.
(§4) Compounds were diluted from 10 mM DMSO stock solutions. Compound combinations were prepared by transferring 2 μl each of the appropriate working compound solutions or vehicle to wells of a 96-well polypropylene plate. A daughter plate was made by 100× dilution into media. The final assay plate was made by 10× dilution into the final assay plate described above. The final DMSO concentration was 0.1%.
(§5) Cells were transferred to a deep well (2 mL) assay block and rinsed with 1 mL cation free PBS (PBS^−/−). Cells were resuspended in Invitrogen's aqua Live/Dead reagent according to manufacturer's instructions and incubated 30 minutes on ice. Aqua Live/Dead was quenched with an equal volume of PBS^+/+ and 4% FBS (FACS buffer). Cells were centrifuged and labeled with αCD5-PE, αCD19-BV421 and AnnexinV-APC in a total volume of 80 μL and incubated 30 minutes on ice. After labeling, cells were rinsed twice in FACS buffer and then fixed with BD Fixation buffer for 30 minutes on ice. Cells were rinsed twice with FACS buffer and analyzed.
(§6) The percentage of CD5^+/CD19^+ cells was quantified in the PBMCs to provide an assessment of the malignant cell population in each sample. To evaluate apoptosis, flow cytometric sampling of 50 μL cell suspensions (5,000-25,000 total events) were collected on a BD FACS Canto II instrument using a high throughput screen (HTS) autosampler. The CD5^+CD19^+ population was gated, and data were collected for the Annexin V^−/Live-Dead^−, AnnexinV^+/Live-Dead^−, AnnexinV^+/Live-Dead^+, and Annexin V^−/Live-Dead^+ CLL populations.
(§7) Annexin V^+/Live-Dead^− or Annexin V^−/Live-Dead^+ cells were gated and percentages of positive cells in each population were recorded for each well and data were extracted to a flow cytometry standard (fcs) file. Average percentages of Annexin V^+/Live-Dead^− and Annexin V^−/Live-Dead^+ were determined.
(§8) EC50 values were calculated based on log concentration of drug and percent Annexin V^+/Live-Dead^− and Annexin V^−/Live-Dead^+ cells using a 4 parameter nonlinear regression algorithm in Prism 6.01 of the GraphPad software (San Diego, Calif. USA, www.graphpad.com). […]

[2] = system: primary chronic lymphocytic leukemia (CLL) cells; assay: Apoptosis induction in primary CLL cells with αIgM/αIgG/αCD40 stimulation, without HS-5 co-culture (Annexin V/Live-Dead flow cytometry); assay type: cell-based, human; settings: for Maximal % Apoptosis: HS-5 (no co-culture), 66-72 hr post-compound addition, duplicate wells; for apoptosis observed in all CLL samples tested: at 30 nM; for average maximal proportion of apoptotic cells: primary αIgM/αIgG/αCD40 stimulated CLL cells
Experimental: as §1, §2, §3, §4, §5, §6, §7
as §8, with “www.graphpad.com). Each run generated a single EC50 based on duplicate well values at each compound dilution. EC50 values and Hill slopes generated from each curve fit were reported.” for “www.graphpad.com).”

CLL = settings: human, in vivo; cited from earlier work

Compound	Maximal % Apoptosis ([1]; Donor 3) [%]	Maximal % Apoptosis ([1]; Donor 4) [%]	apoptosis levels versus background in the presence of HS-5 co-culture ([1]; HS-5 co-culture, 5 donors tested, mean EC50 not reported)	average maximal apoptosis ([2]; 1 μM compound, αIgM/αIgG/αCD40 stimulated, 5 donors) [%]	Maximal % Apoptosis ([2]; Donor 3, 1 μM compound) [%]	Maximal % Apoptosis ([2]; Donor 4, 1 μM compound) [%]	Maximal % Apoptosis ([2]; Donor 5, 1 μM compound) [%]	Maximal % Apoptosis ([2]; Donor 6, 1 μM compound) [%]	Maximal % Apoptosis ([2]; Donor 10, 1 μM compound) [%]	EC50 ([2]; Homo sapiens, CLL cell, primary CLL cells stimulated with αIgM/αIgG/αCD40, N=4, 66-72 h, read-out: geometric mean EC50 (±standard deviation) for induction of apoptosis) [nM]	apoptosis observed in all CLL samples tested [2] [%]	average maximal proportion of apoptotic cells [2] [%]	clinical efficacy in CLL (CLL)	dose-responsive effect in inducing apoptosis ([2]; primary CLL cells, single agent)
CC#CC(=O)N1CC[C@@H](n2c(=O)n(-c3ccc(Oc4ccccc4)cc3)c3c(N)ncnc32)C1 [Compound A1, 6-amino-9-[(3R)-1-(2-butynoyl)-3-pyrrolidinyl]-7-(4-phenoxyphenyl)-7,9-dihydro-8H-purin-8-one]	10.1	45.5	generally not increased above background in 3/5 donors tested	21.1	30.0	67.3	10.4	14.1	20.0	27.2 ± 11.3				
CC1(C)CCC(CN2CCN(c3ccc(C(=O)NS(=O)(=O)c4ccc(NCC5CCOCC5)c([N+](=O)[O-])c4)c(Oc4cnc5[nH]ccc5c4)c3)CC2)=C(c2ccc(Cl)cc2)C1 [Compound B1, 4-[4-[[2-(4-chlorophenyl)-4,4-dimethyl-1-cyclohexen-1-yl]methyl]-1-piperazinyl]-N-[[3-nitro-4-[[(tetrahydro-2H-pyran-4-yl)methyl]amino]phenyl]sulfonyl]-2-(1H-pyrrolo[2,3-b]pyridin-5-yloxy)-benzamide]	30.8	80.8			66.1	87.3	38.3	31.6	35.8		> 60	91.4	clinical efficacy in CLL	
CCC(Nc1ncnc2[nH]cnc12)c1nc2cccc(F)c2c(=O)n1-c1ccccc1 (stereo not shown) [Compound C1, 2-(1-((9H-Purin-6-yl)amino)propyl)-5-fluoro-3-phenylquinazolin-4(3H)-one]	15.2	30.6			50.8	60.1	12.1	15.0	17.6			23		dose-responsive effect
c1cn2cc(-c3ccc4cn[nH]c4c3)nc(Nc3ccc(N4CCOCC4)cc3)c2n1 [Compound D1, 6-(1H-indazol-6-yl)-N-(4-morpholinophenyl)imidazo[1,2-a]pyrazin-8-amine]											> 60		clinical efficacy in CLL	
